Measurements from ChEMBL document CHEMBL4673315, “Structure-activity relationship (SAR) studies on the mutagenic properties of 2,7-diaminofluorene and 2,7-diaminocarbazole derivatives” (Bioorg Med Chem Lett, 2021).

Tests used:
[1] = Mutagenicity in Salmonella typhimurium TA98 in presence of liver S9 fraction by AMES test; format: toxicity, subcellular; conditions: salmonella enterica subsp. enterica serovar typhimurium
[2] = Mutagenicity in Salmonella typhimurium TA98 by AMES test; format: toxicity; conditions: salmonella enterica subsp. enterica serovar typhimurium
[3] = Mutagenicity in Salmonella typhimurium TA100 in presence of liver S9 fraction by AMES test; format: toxicity, subcellular; conditions: salmonella enterica subsp. enterica serovar typhimurium
[4] = Mutagenicity in Salmonella typhimurium TA100 by AMES test; format: toxicity; conditions: salmonella enterica subsp. enterica serovar typhimurium
Hepatitis C virus [5] = assay: Antiviral activity against Hepatitis C virus subtype 2a infected in Huh 7.5.1 cells assessed as reduction in viral replication incubated for 3 days by JC1 Gaussia luciferase reporter gene assay; format: functional, organism-based, Hepacivirus hominis; conditions: Huh-7.5.1, 72 h
Hepatitis C virus [6] = assay: Antiviral activity against Hepatitis C virus subtype 1b harboring NS5A Y93H mutant infected in Huh 7.5.1 cells assessed as reduction in viral replication incubated for 3 days by NK5.1 luciferase reporter gene assay; format: functional, organism-based, Hepacivirus hominis; conditions: Huh-7.5.1, 72 h
Hepatitis C virus [7] = assay: Antiviral activity against Hepatitis C virus subtype 1b infected in Huh 7.5.1 cells assessed as reduction in viral replication incubated for 3 days by NK5.1 luciferase reporter gene assay; format: functional, organism-based, Hepacivirus hominis; conditions: Huh-7.5.1, 72 h
Hepatitis C virus [8] = assay: Antiviral activity against Hepatitis C virus subtype 3a infected in Huh 7.5.1 cells assessed as reduction in viral replication incubated for 3 days by S52-Feo luciferase reporter gene assay; format: functional, organism-based, Hepacivirus hominis; conditions: Huh-7.5.1, 72 h
Hepatitis C virus [9] = assay: Antiviral activity against Hepatitis C virus subtype 1b harboring NS5A L31V/Y93H double mutant infected in Huh 7.5.1 cells assessed as reduction in viral replication incubated for 3 days by NK5.1 luciferase reporter gene assay; format: functional, organism-based, Hepacivirus hominis; conditions: Huh-7.5.1, 72 h
Hepatitis C virus [10] = assay: Antiviral activity against Hepatitis C virus subtype 1b harboring NS5A L31V mutant infected in Huh 7.5.1 cells assessed as reduction in viral replication incubated for 3 days by NK5.1 luciferase reporter gene assay; format: functional, organism-based, Hepacivirus hominis; conditions: Huh-7.5.1, 72 h

SMILES | Activity [1] | Activity [2] | Activity [3] | Activity [4] | EC50 (Hepatitis C virus [5]) [nM] | EC50 (Hepatitis C virus [6]) [nM] | EC50 (Hepatitis C virus [7]) [nM] | EC50 (Hepatitis C virus [8]) [nM] | EC50 (Hepatitis C virus [9]) [nM] | EC50 (Hepatitis C virus [10]) [nM]
CC(C)=CC1c2cc(N)ccc2-c2ccc(N)cc21 | Toxic | Toxic | Toxic | Toxic |  |  |  |  |  | 
COCCOc1cccc(Cn2c3cc(N)ccc3c3ccc(N)cc32)c1 | Toxic | Non-Toxic | Non-Toxic | Non-Toxic |  |  |  |  |  | 
CC(C)(C)c1ccc(C2c3cc(N)ccc3-c3ccc(N)cc32)cc1 | Toxic | Non-Toxic | Non-Toxic | Non-Toxic |  |  |  |  |  | 
Nc1ccc2c(c1)C(=Cc1ccncc1)c1cc(N)ccc1-2 | Toxic | Non-Toxic | Toxic | Non-Toxic |  |  |  |  |  | 
Nc1ccc2c(c1)C(c1ccc(Br)cc1)c1cc(N)ccc1-2 | Toxic | Non-Toxic | Non-Toxic | Non-Toxic |  |  |  |  |  | 
CCCCOc1ccc(Cn2c3cc(N)ccc3c3ccc(N)cc32)cc1 | Toxic | Non-Toxic | Non-Toxic | Non-Toxic |  |  |  |  |  | 
CCCC1(CCC)c2cc(N)ccc2-c2ccc(N)cc21 | Toxic | Non-Toxic | Non-Toxic | Non-Toxic |  |  |  |  |  | 
Nc1ccc2c3ccc(N)cc3n(C(C3CC3)C3CC3)c2c1 | Toxic | Non-Toxic | Toxic | Non-Toxic |  |  |  |  |  | 
CCCCCCCCCC(c1ccccc1)n1c2cc(N)ccc2c2ccc(N)cc21 (stereo not given) | Non-Toxic | Non-Toxic | Non-Toxic | Non-Toxic |  |  |  |  |  | 
CC(c1ccccc1)n1c2cc(N)ccc2c2ccc(N)cc21 (stereo not given) | Toxic | Non-Toxic | Toxic | Non-Toxic |  |  |  |  |  | 
CCCCC(CCCC)n1c2cc(N)ccc2c2ccc(N)cc21 | Non-Toxic | Non-Toxic | Non-Toxic | Non-Toxic |  |  |  |  |  | 
CCCCn1c2cc(N)ccc2c2ccc(N)cc21 | Toxic | Toxic | Toxic | Toxic |  |  |  |  |  | 
Nc1ccc2c(c1)C(c1ccc(F)cc1)c1cc(N)ccc1-2 | Toxic | Non-Toxic | Non-Toxic | Non-Toxic |  |  |  |  |  | 
CCCCC1(CCCC)c2cc(NC(=O)[C@@H]3C[C@@H](O)CN3C(=O)[C@H](NC(=O)OC)c3ccccc3)ccc2-c2ccc(NC(=O)[C@@H]3C[C@@H](O)CN3C(=O)[C@H](NC(=O)OC)c3ccccc3)cc21 |  |  |  |  | 1.2 | 0.88 | 0.002 | 0.016 | 41.4 | 0.003
Nc1ccc2c3ccc(N)cc3n(CCCCCCCCCCN3CCOCC3)c2c1 | Non-Toxic | Non-Toxic | Non-Toxic | Non-Toxic |  |  |  |  |  | 
Nc1ccc2c(c1)C(CCCC(F)(F)F)(CCCC(F)(F)F)c1cc(N)ccc1-2 | Toxic | Non-Toxic | Non-Toxic | Non-Toxic |  |  |  |  |  | 
CCCCCCCCCCCCn1c2cc(N)ccc2c2ccc(N)cc21 | Non-Toxic | Non-Toxic | Non-Toxic | Non-Toxic |  |  |  |  |  | 
Nc1ccc2c(c1)C(=Cc1ccc(C(F)(F)F)cc1)c1cc(N)ccc1-2 | Toxic | Toxic | Non-Toxic | Non-Toxic |  |  |  |  |  | 
Nc1ccc2c(c1)C(CCCCC(F)(F)F)(CCCCC(F)(F)F)c1cc(N)ccc1-2 | Non-Toxic | Non-Toxic | Non-Toxic | Non-Toxic |  |  |  |  |  | 
CC(C)c1ccc(C2c3cc(N)ccc3-c3ccc(N)cc32)cc1 | Toxic | Non-Toxic | Non-Toxic | Non-Toxic |  |  |  |  |  | 
Nc1ccc2c3ccc(N)cc3n(Cc3cccc(OC4CCCC4)c3)c2c1 | Toxic | Non-Toxic | Non-Toxic | Non-Toxic |  |  |  |  |  | 
Nc1ccc2c(c1)C(c1ccc3ccccc3c1)c1cc(N)ccc1-2 | Toxic | Non-Toxic | Non-Toxic | Non-Toxic |  |  |  |  |  | 
CCCCCCCCCCn1c2cc(N)ccc2c2ccc(N)cc21 | Toxic | Non-Toxic | Non-Toxic | Non-Toxic |  |  |  |  |  | 
CCCCCCOc1ccc(Cn2c3cc(N)ccc3c3ccc(N)cc32)cc1 | Toxic | Non-Toxic | Non-Toxic | Non-Toxic |  |  |  |  |  | 
Nc1ccc2c(c1)C(c1ccc(C(F)(F)F)cc1)c1cc(N)ccc1-2 | Toxic | Non-Toxic | Non-Toxic | Non-Toxic |  |  |  |  |  | 
Nc1ccc2c(c1)C(Cc1ccc(C(F)(F)F)cc1)c1cc(N)ccc1-2 | Toxic | Toxic | Non-Toxic | Non-Toxic |  |  |  |  |  | 
CCCCC(c1ccccc1)n1c2cc(N)ccc2c2ccc(N)cc21 (stereo not given) | Toxic | Non-Toxic | Non-Toxic | Non-Toxic |  |  |  |  |  | 
